Source: patent publication US20090202453A1, “Oral Composition” (Hindustan Lever Limited, priority 2004, published 2009)

Columns and labels:
[1] = upper aqueous solution pH attained without precipitating zinc hydroxide; assay type: physicochemical; conditions: 1:3 molar ratio of zinc to ligand
[2] = binding affinity of one ligand with free zinc ion; recorded at pH 7.4
Protocol: The log Ks1 is the logarithm of the primary Stability Constant which is the binding affinity for a particular ligand with a particular metal ion, in the present invention zinc. […] Since [L] is a function of the solution pH, due to the required initial deprotonation of the ligand, as a reference point, the log Ks1 values described were recorded at pH 7.4.

SMILES	pH at which zinc hydroxide precipitates [1]	pH at which zinc hydroxide precipitates ([1]; listed as acetate)	zinc-ligand (log Ks1) [2]
CC(=O)O [acetic acid]	5.82	below 6	–
NCC(=O)O [glycine]	>10	–	5.16
